What was measured:
[1] = tested on: HIV-1 K103N mutant strain; assay: microbe, parasite or virus in culture; format: cell-based; settings: for SI K103N: CC50/EC50; for EC50: Human immunodeficiency virus 1, MT4, read-out: EC50 K103N; for RF K103N: ratio of EC50 (resistant viral strain)/EC50 (wild-type viral strain)
[2] = tested on: HIV-1 RES056 (K103N + Y181C) double-mutant strain; assay: microbe, parasite or virus in culture; format: cell-based; settings: for SI RES056: CC50/EC50; for EC50: Human immunodeficiency virus 1, MT4, read-out: EC50 RES056; for RF RES056: ratio of EC50 (resistant viral strain)/EC50 (wild-type viral strain)
[3] = tested on: HIV-1 E138K mutant strain; assay: microbe, parasite or virus in culture; format: cell-based; settings: for SI E138K: CC50/EC50; for EC50: Human immunodeficiency virus 1, MT4, read-out: EC50 E138K; for RF E138K: ratio of EC50 (resistant viral strain)/EC50 (wild-type viral strain)
[4] = tested on: HIV-1 L100I mutant strain; assay: microbe, parasite or virus in culture; format: cell-based; settings: for SI L100I: CC50/EC50; for EC50: Human immunodeficiency virus 1, MT4, read-out: EC50 L100I; for RF L100I: ratio of EC50 (resistant viral strain)/EC50 (wild-type viral strain)
[5] = tested on: HIV-1 Y181C mutant strain; assay: microbe, parasite or virus in culture; format: cell-based; settings: for SI Y181C: CC50/EC50; for EC50: Human immunodeficiency virus 1, MT4, read-out: EC50 Y181C; for RF Y181C: ratio of EC50 (resistant viral strain)/EC50 (wild-type viral strain)
WT HIV-1 (IIIB) = assay: microbe, parasite or virus in culture; format: cell-based; settings: for EC50: Human immunodeficiency virus 1, IIIB, MT4, read-out: EC50 IIIB; for SI IIIB: ratio of CC50/EC50
[6] = tested on: HIV-1 Y188L mutant strain; assay: microbe, parasite or virus in culture; format: cell-based; settings: for SI Y188L: CC50/EC50; for EC50: Human immunodeficiency virus 1, MT4, read-out: EC50 Y188L; for RF Y188L: ratio of EC50 (resistant viral strain)/EC50 (wild-type viral strain)
[7] = Cytotoxicity in mock-infected MT-4 cell cultures, MTT method; settings: human, mock-infected MT-4 cells
HIV-2 strain (ROD) = assay: Anti-HIV-2; format: cell-based; settings: for EC50: Human immunodeficiency virus 2, MT4, read-out: EC50 ROD; for SI ROD: ratio of CC50/EC50
WT HIV-1 RT = WT HIV-1 RT (Human immunodeficiency virus type 1 group M subtype B, UniProt P03366); assay: Recombinant HIV-1 RT inhibitory assay; format: biochemical
[8] = tested on: HIV-1 F227L + V106A double-mutant strain; assay: microbe, parasite or virus in culture; format: cell-based; settings: for SI F227L + V106A: CC50/EC50; for EC50: Human immunodeficiency virus 1, MT4, read-out: EC50 F227L + V106A; for RF F227L + V106A: ratio of EC50 (resistant viral strain)/EC50 (wild-type viral strain)

| Compound | SI K103N [1] | EC50 [1] [µM] | RF K103N [1] | SI RES056 [2] | EC50 [2] [µM] | RF RES056 [2] | SI E138K [3] | EC50 [3] [µM] | RF E138K [3] | SI L100I [4] | EC50 [4] [µM] | RF L100I [4] | SI Y181C [5] | EC50 [5] [µM] | RF Y181C [5] | EC50 (WT HIV-1 (IIIB)) [µM] | SI IIIB (WT HIV-1 (IIIB)) | SI Y188L [6] | EC50 [6] [µM] | RF Y188L [6] | also measured |
| --- | --- | --- | --- | --- | --- | --- | --- | --- | --- | --- | --- | --- | --- | --- | --- | --- | --- | --- | --- | --- | --- |
| Cc1cc(-c2ccc(C#N)cc2)cc(C)c1Oc1nc(NC2CCN(Cc3ccc(S(N)(=O)=O)cc3)CC2)nc2ccsc12 [Compound 25, 4-((4-((4-((4′-Cyano-3,5-dimethyl-[1,1′-biphenyl]-4-yl)oxy)thieno[3,2-d]pyrimidin-2-yl)amino)piperidin-1-yl)methyl)benzenesulfonamide] | 403 | 0.0132 ± 0.00033 | 0.8 | 51 | 0.103 ± 0.00339 | 6.1 | 120 | 0.0444 ± 0.00362 | 2.6 | 194 | 0.0274 ± 0.00441 | 1.6 | 173 | 0.0308 ± 0.00011 | 1.8 | 0.017 ± 0.00578 | 312 | 99 | 0.0536 ± 0.0035 | 3.2 | CC50 at 5 days [7]: 5.31 ± 2.56 µM; EC50 (HIV-2 strain (ROD)): 5.56 ± 0.0423 µM; SI ROD (HIV-2 strain (ROD)): 1; IC50 (WT HIV-1 RT): 0.288 ± 0.026 µM; SI F227L + V106A [8]: 89; EC50 [8]: 0.0599 ± 0.0102 µM; RF F227L + V106A [8]: 3.5 |
| Cc1cc(-c2ccccc2)cc(C)c1Oc1nc(NC2CCN(Cc3ccc(S(N)(=O)=O)cc3)CC2)nc2ccsc12 [Compound 19, 4-((4-((4-((3,5-Dimethyl-[1,1′-biphenyl]-4-yl)oxy)thieno[3,2-d]pyrimidin-2-yl)amino)piperidin-1-yl)methyl)benzenesulfonamide] | 356 | 0.0599 ± 0.00601 | 1.4 | 12 | 1.71 ± 0.473 | 39.1 | 200 | 0.107 ± 0.0188 | 2.4 | 62 | 0.344 ± 0.117 | 7.9 | 127 | 0.167 ± 0.0245 | 3.8 | 0.0438 ± 0.0156 | 487 | 176 | 0.121 ± 0.00919 | 2.8 | CC50 at 5 days [7]: 21.3 ± 1.26 µM; EC50 (HIV-2 strain (ROD)): 6.13 ± 0.272 µM; SI ROD (HIV-2 strain (ROD)): 3; IC50 (WT HIV-1 RT): 0.164 ± 0.005 µM; SI F227L + V106A [8]: 106; EC50 [8]: 0.2 ± 0.0104 µM; RF F227L + V106A [8]: 4.6 |
| COc1ccc(-c2cc(C)c(Oc3nc(NC4CCN(Cc5ccc(C(N)=O)cc5)CC4)nc4ccsc34)c(C)c2)cc1 [Compound 22, 4-((4-((4-((4′-Methoxy-3,5-dimethyl-[1,1′-biphenyl]-4-yl)oxy)thieno[3,2-d]pyrimidin-2-yl)amino)piperidin-1-yl)methyl)benzamide] | 230 | 0.0584 ± 0.00714 | 1.1 | 12 | 1.12 ± 0.353 | 21.4 | 90 | 0.149 ± 0.042 | 2.8 | 50 | 0.268 ± 0.103 | 5.1 | 85 | 0.158 ± 0.0273 | 3.0 | 0.0526 ± 0.0114 | 256 | 122 | 0.11 ± 0.00357 | 2.1 | CC50 at 5 days [7]: 13.4 ± 5.94 µM; EC50 (HIV-2 strain (ROD)): 5.04 ± 0.685 µM; SI ROD (HIV-2 strain (ROD)): 3; IC50 (WT HIV-1 RT): 0.233 ± 0.028 µM; SI F227L + V106A [8]: 45; EC50 [8]: 0.297 ± 0.0398 µM; RF F227L + V106A [8]: 5.7 |
| Cc1cc(-c2ccoc2)cc(C)c1Oc1nc(NC2CCN(Cc3ccc(S(N)(=O)=O)cc3)CC2)nc2ccsc12 [Compound 13, 4-((4-((4-(4-(Furan-3-yl)-2,6-dimethylphenoxy)thieno[3,2-d]pyrimidin-2-yl)amino)piperidin-1-yl)methyl)benzenesulfonamide] | 249 | 0.0629 ± 0.0104 | 1.0 | 13 | 1.19 ± 0.184 | 18.8 | 81 | 0.193 ± 0.0148 | 3.0 | 84 | 0.186 ± 0.0294 | 2.9 | 79 | 0.197 ± 0.0161 | 3.1 | 0.0636 ± 0.0114 | 246 | 117 | 0.133 ± 0.00335 | 2.1 | CC50 at 5 days [7]: 15.6 ± 4.97 µM; EC50 (HIV-2 strain (ROD)): 6.8 ± 1.23 µM; SI ROD (HIV-2 strain (ROD)): 2; IC50 (WT HIV-1 RT): 0.265 ± 0.059 µM; SI F227L + V106A [8]: 44; EC50 [8]: 0.358 ± 0.0184 µM; RF F227L + V106A [8]: 5.6 |
| Cc1cc(-c2ccccc2)cc(C)c1Oc1nc(NC2CCN(Cc3ccc(C(N)=O)cc3)CC2)nc2ccsc12 [Compound 20, 4-((4-((4-((3,5-Dimethyl-[1,1′-biphenyl]-4-yl)oxy)thieno[3,2-d]pyrimidin-2-yl)amino)piperidin-1-yl)methyl)benzamide] | 171 | 0.102 ± 0.0025 | 2.1 | 10 | 1.733 ± 0.00551 | 36.3 | 120 | 0.146 ± 0.0125 | 3.1 | 42 | 0.416 ± 0.0879 | 8.7 | 89 | 0.196 ± 0.0546 | 4.1 | 0.0477 ± 0.0118 | 367 | 85 | 0.205 ± 0.0136 | 4.3 | CC50 at 5 days [7]: 17.5 ± 6.18 µM; EC50 (HIV-2 strain (ROD)): 3.84 ± 1.77 µM; SI ROD (HIV-2 strain (ROD)): 5; IC50 (WT HIV-1 RT): 0.161 ± 0.014 µM; SI F227L + V106A [8]: 44; EC50 [8]: 0.395 ± 0.00514 µM; RF F227L + V106A [8]: 8.3 |
| Cc1cc(-c2cccc(N(C)C)c2)cc(C)c1Oc1nc(NC2CCN(Cc3ccc(C(N)=O)cc3)CC2)nc2ccsc12 [Compound 32, 4-((4-((4-((3'-(Dimethylamino)-3,5-dimethyl-[1,1′-biphenyl]-4-yl)oxy)thieno[3,2-d]pyrimidin-2-yl)amino)piperidin-1-yl)methyl)benzamide] | 93 | 0.212 ± 0.00734 | 1.3 | 5 | 4.3 ± 1.54 | 26.2 | 100 | 0.198 ± 0.0342 | 1.2 | 17 | 1.14 ± 0.0992 | 6.9 | 32 | 0.626 ± 0.0392 | 3.8 | 0.163 ± 0.0578 | 121 | 36 | 0.552 ± 0.0456 | 3.4 | CC50 at 5 days [7]: 19.8 ± 4.47 µM; EC50 (HIV-2 strain (ROD)): 4.66 ± 0.824 µM; SI ROD (HIV-2 strain (ROD)): 4; IC50 (WT HIV-1 RT): 0.271 ± 0.016 µM; SI F227L + V106A [8]: 25; EC50 [8]: 0.783 ± 0.196 µM; RF F227L + V106A [8]: 4.8 |
| Cc1cc(-c2cccc(C#N)c2)cc(C)c1Oc1nc(NC2CCN(Cc3ccc(C(N)=O)cc3)CC2)nc2ccsc12 [Compound 28, 4-((4-((4-((3′-Cyano-3,5-dimethyl-[1,1′-biphenyl]-4-yl)oxy)thieno[3,2-d]pyrimidin-2-yl)amino)piperidin-1-yl)methyl)benzamide] | 208 | 0.02 ± 0.0012 | 0.9 | 10 | 0.402 ± 0.0419 | 17.2 | 99 | 0.0419 ± 0.00456 | 1.8 | 83 | 0.0502 ± 0.0103 | 2.1 | 81 | 0.0516 ± 0.00432 | 2.2 | 0.0234 ± 0.0169 | 178 | 57 | 0.0734 ± 0.00516 | 3.1 | CC50 at 5 days [7]: 4.16 ± 1.75 µM; EC50 (HIV-2 strain (ROD)): > 4.17 µM; SI ROD (HIV-2 strain (ROD)): <1; IC50 (WT HIV-1 RT): 0.202 ± 0.02 µM; SI F227L + V106A [8]: 26; EC50 [8]: 0.157 ± 0.0066 µM; RF F227L + V106A [8]: 6.7 |
| Cc1cc(-c2ccc(N(C)C)cc2)cc(C)c1Oc1nc(NC2CCN(Cc3ccc(S(N)(=O)=O)cc3)CC2)nc2ccsc12 [Compound 29, 4-((4-((4-((4'-(Dimethylamino)-3,5-dimethyl-[1,1′-biphenyl]-4-yl)oxy)thieno[3,2-d]pyrimidin-2-yl)amino)piperidin-1-yl)methyl)benzenesulfonamide] | 189 | 0.0972 ± 0.00307 | 1.2 | 11 | 1.68 ± 0.388 | 21.2 | 100 | 0.183 ± 0.0194 | 2.3 | 74 | 0.247 ± 0.0045 | 3.1 | 71 | 0.26 ± 0.0302 | 3.3 | 0.0792 ± 0.0487 | 232 | 68 | 0.269 ± 0.03 | 3.4 | CC50 at 5 days [7]: 18.3 ± 4.5 µM; EC50 (HIV-2 strain (ROD)): > 18.4 µM; SI ROD (HIV-2 strain (ROD)): <1; IC50 (WT HIV-1 RT): 0.477 ± 0.009 µM; SI F227L + V106A [8]: 131; EC50 [8]: 0.14 ± 0.00131 µM; RF F227L + V106A [8]: 1.8 |

From publication PMC7280082 (Acta Pharmaceutica Sinica. B, 2019)
